# Source: PubChem BioAssay (NCI)
#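 In this assay, cells in 96-well plates receive the compound at five concentrations for 48 hours. Endpoints are linearly interpolated between the surrounding concentrations. The concentration for full growth arrest is given as TGI.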
# Tests used:
# Test in all cases: NCI tumour cell line growth inhibition, 48 h
# [1] = test system: OVCAR-4 ovarian
# [2] = test system: SK-OV-3 ovarian
# [3] = test system: MCF7 breast
# [4] = test system: OVCAR-5 ovarian
# [5] = test system: MDA-MB-231 breast
# [6] = test system: SNB-19 CNS
# [7] = test system: DU-145 prostate
# [8] = test system: HS 578T breast
# [9] = test system: UACC-62 melanoma
# [10] = test system: ACHN renal
# [11] = test system: SNB-75 CNS
# [12] = test system: SN12C renal
# [13] = test system: MDA-N
# [14] = test system: HCT-116 colon
# [15] = test system: NCI-H226 lung
# [16] = test system: UACC-257 melanoma
# [17] = test system: CAKI-1 renal
# [18] = test system: SF-268 CNS
# [19] = test system: K-562 leukemia
# [20] = test system: KM12 colon
# [21] = test system: EKVX NSCLC
# [22] = test system: NCI/ADR-RES ovarian
# [23] = test system: A498 renal
# [24] = test system: MOLT-4 leukemia
# [25] = test system: HOP-62 NSCLC
# [26] = test system: 786-0 renal
# [27] = test system: BT-549 breast
# [28] = test system: CCRF-CEM leukemia
# [29] = test system: SF-295 CNS
# [30] = test system: HT29 colon
# [31] = test system: SW-620 colon
# [32] = test system: COLO 205 colon
# [33] = test system: A549 NSCLC
# [34] = test system: MDA-MB-435
# [35] = test system: NCI-H23 lung
# [36] = test system: OVCAR-8 ovarian
# [37] = test system: T-47D breast
# [38] = test system: SF-539 CNS
# [39] = test system: RPMI-8226 leukemia
# [40] = test system: SK-MEL-28 melanoma
# [41] = test system: M14 melanoma
# [42] = test system: U251 CNS
# [43] = test system: HCT-15 colon
# [44] = test system: MALME-3M melanoma
# [45] = test system: PC-3 prostate
# [46] = test system: NCI-H460 lung
# [47] = test system: SK-MEL-2 melanoma
# [48] = test system: UO-31 renal
# [49] = test system: HCC-2998 colon
compound,measurement,setting,value
O=C1c2ccccc2-c2c1c(-c1ccc(O)cc1O)nc1ccc3ccccc3c21,TGI,[1],> 100 µM
same,TGI,[2],> 100 µM
same,TGI,[3],> 100 µM
same,TGI,[4],> 100 µM
same,TGI,[5],> 100 µM
same,TGI,[6],> 100 µM
same,TGI,[7],> 100 µM
same,TGI,[8],75.2 µM
same,TGI,[9],> 100 µM
same,TGI,[10],> 100 µM
same,TGI,[11],> 100 µM
same,TGI,[12],> 100 µM
same,TGI,[13],> 100 µM
same,TGI,[14],> 100 µM
same,TGI,[15],> 100 µM
same,TGI,[16],> 100 µM
same,TGI,[17],> 100 µM
same,TGI,[18],> 100 µM
same,TGI,[19],> 100 µM
same,TGI,[20],> 100 µM
same,TGI,[21],> 100 µM
same,TGI,[22],> 100 µM
same,TGI,[23],> 100 µM
same,TGI,[24],> 100 µM
same,TGI,[25],> 100 µM
same,TGI,[26],> 100 µM
same,TGI,[27],> 100 µM
same,TGI,[28],> 100 µM
same,TGI,[29],> 100 µM
same,TGI,[30],> 100 µM
same,TGI,[31],> 100 µM
same,TGI,[32],> 100 µM
same,TGI,[33],> 100 µM
same,TGI,[34],> 100 µM
same,TGI,[35],> 100 µM
same,TGI,[36],> 100 µM
same,TGI,[37],> 100 µM
same,TGI,[38],> 100 µM
same,TGI,[39],> 100 µM
same,TGI,[40],> 100 µM
same,TGI,[41],> 100 µM
same,TGI,[42],> 100 µM
same,TGI,[43],> 100 µM
same,TGI,[44],> 100 µM
same,TGI,[45],> 100 µM
same,TGI,[46],> 100 µM
same,TGI,[47],> 100 µM
same,TGI,[48],> 100 µM
same,TGI,[49],> 100 µM
